Legend:
[1] = tested on: DMBA/TPA-induced skin papillomas and squamous spindle-cell carcinomas; assay: DMBA/TPA mouse skin papilloma and cancer model, 28 weeks (Experiment-4); format: in vivo
[2] = biological solutions, range of temperatures and pH; cited from earlier work
[3] = tested on: cancer ectocervical, endocervical, endometrial cells and cancer keratinocytes; details: fold lesser apoptosis after BzATP; cited from earlier work
[4] = tested on: mouse wild-type normal keratinocytes; assay: DNA synthesis ([3H]-thymidine incorporation) in mouse wild-type normal keratinocytes; format: cell-based; details: BzATP 100 μM 8 hours; oligonucleotides 100 μM 14 hours
Procedure: FIG. 20 presents exemplary data showing the effects of pre-treatment with anti-sense P2X7 oligonucleotides (ASO) or random-control P2X7 oligonucleotides (RCO) (both at 100 μM for 14 hours), and of treatments with BzATP (100 μM, 8 hours) on [^3H]-thymidine incorporation in mouse wild-type normal keratinocytes (values are means±SD, n=4).
Changes in DNA synthesis were determined in terms of [^3H]-thymidine incorporation as described Wang et al., “EGF facilitates epinephrine inhibition of P2X7-receptor mediated pore formation and apoptosis: a novel signaling network” Endocrinology 2005, 146:164-174. The radioactivity (dpm/mg Protein, determined by Bio-Rad Protein Assay solution [Hercules, Calif.]) of triplicated samples was determined by beta scintillation counting (Beckman LS1801 scintillation counter).

[5] = tested on: WT-MDCK cells; assay: Apoptosis in wild-type MDCK cells lacking P2X7; format: cell-based, canine; details: 100 μM, 8 hrs
Excerpt: Human epidermal squamous cell carcinoma-9 (SCC-9) cells and Madin Darby canine kidney cells (MDCK, strain II) were obtained from the ATCC. […] Apoptosis may be quantified in terms of percent solubilized DNA (Wang et al, 2004a), or by using the commercial cell-death detection ELISA kit (Roche Applied Science, Nutley, N.J.) (Feng et al, 2006). […] The sequences of the 20-mer ASO that would hybridize to the coding region of exon 7 (nt 724-741), and the RCO were as follows: […] In the RCO, the antisense sequence was randomly replaced with adenine and thymine residues so that the oligonucleotides had the same length (20-mer) and GC content (33%) as the ASO.

[6] = tested on: mouse wild-type normal keratinocytes; assay: Apoptosis in cultured mouse wild-type keratinocytes; format: cell-based; details: 8 hours
[7] = tested on: HeLa cells; assay: Apoptosis in HeLa cells; format: cell-based, human
[8] = tested on: P2X7 pores; assay: Ethidium bromide influx (P2X7 pore formation) in mouse wild-type keratinocytes; format: cell-based
Procedure: FIG. 17B: Time course of influx of ethidium bromide (Eth-Br).
FIG. 17C: Dose response profile comparison between ΔCa^2+i and Eth-Br influx. Cells were treated with each BzATP concentration for […]. Levels of ΔCa^2+i (empty circles) were determined 2 min after adding BzATP; changes in Eth-Br fluorescence (filled circles) were determined 5 min after adding BzATP. Values=means±SD. Experiments were repeated 3 times. AU=arbitrary units.
Changes in Ca^2+i in cultured cells were determined in terms of changes in intracellular Fluo-4 fluorescence using dynamic confocal laser scanning microscopy. Cultured mouse keratinocytes were loaded with 5 μM Fluo-4/AM, and imaged with a Zeiss LSM 510 inverted real-time confocal microscope. Images were collected at 488 nm/505 nm (exc/emi) at intervals of 10 to 15 seconds after treatment with 100 μM BzATP, added to the perfusate. For ethidium bromide influx experiments, glass-bottomed dishes cultured with mouse keratinocytes were placed in the microscope. Images (collected at 488 nm/505 nm [exc/emi]) were taken before, and at intervals of 30 seconds after adding 5 μM ethidium bromide to the perfusate as described. Average fluorescence intensity was quantified from collated images using MetaVue software (Fryer Company Inc., Huntley, Ill.) by subtracting the basal intensity value.

[9] = tested on: DMBA/TPA-induced skin papillomas; assay: DMBA/TPA mouse skin papilloma model, 12 weeks (Experiment-3); format: in vivo
[10] = biological target: P2X7 receptor; details: cited from earlier work
[11] = tested on: hEVEC cells; assay: Apoptosis in hEVEC cells; format: cell-based, human

Nc1ncnc2c1ncn2[C@@H]1O[C@H](COP(=O)(O)OP(=O)(O)OP(=O)(O)O)[C@@H](OC(=O)c2ccc(C(=O)c3ccccc3)cc2)[C@H]1O [BzATP, 3′-O-(4-benzoylbenzoyl)adenosine triphosphate]
inhibition of papilloma and skin cancer formation ([1]; 1 μg/cm^2 BzATP applied locally twice weekly): 50% | effect on P2X7 receptor expression in skin cancers ([1]; immunoreactivity in cross sections): did not effect P2X7 receptor expression in cancer cells | overall survival rates versus DMBA/TPA group ([1]; log-rank test): did not differ statistically | TUNEL staining in papillomas and cancer tissues versus DMBA/TPA group ([1]; mouse, in vivo): more intense | development of cancerous lesions (time-to-event) versus DMBA/TPA group ([1]; mouse, in vivo): significantly slower and lower | proportion of living animals with cancerous lesions >200 mm^3, difference to DMBA/TPA group ([1]; mouse, in vivo): did not reach statistical significance | proportion of living animals having a papilloma ([1]; week 5, DMBA/TPA+BzATP group): 48±12% | papillomas per animal (mean±SD) ([1]; week 10, DMBA/TPA+BzATP group): 1.2±0.4 | mean total papillomas size per animal (mean±SD) ([1]; week 12, DMBA/TPA+BzATP group): 3.4±1.0 mm^3 | proportion of animals with cancers ([1]; week 14, mice co-treated with BzATP): 50% | proportion of living animals with cancerous lesions ([1]; week 28, DMBA/TPA+BzATP group): 43±9% | proportion of living animals with cancerous lesions >10 mm^3 ([1]; week 28, DMBA/TPA+BzATP group): 16±4% | lowering of incidence of cancerous lesions ([1]; week 28, co-treated with BzATP): about 50% | lowering of incidence of papillomas ([1]; weeks 0-12, co-treated with BzATP): about 50% | effect on number of cancerous lesions per animal ([1]; weeks 14-28): little effect | stability [2]: relatively stable compound in biological solutions and across a broad range of temperatures and pH | apoptosis in cancer cells relative to the respective normal cells [3]: 2-5 fold | effect on [3H]-thymidine incorporation [4]: no significant effect | BzATP-induced apoptosis [5]: did not induce apoptosis | concentration of maximal apoptosis effect [6]: 100 to 250 µM | lowest BzATP level at which apoptosis effects began [6]: 50 nM | EC50 ([6]; Mus musculus, Keratinocyte, read-out: estimated EC50 of apoptosis augmentation): ~10 µM | effect of BzATP on apoptosis [7]: no significant effect | concentration of pre-maximal response, ethidium bromide influx [8]: 100 to 250 µM | onset of pore formation and augmented calcium influx after adding BzATP [8]: 30 to 60 s | threshold concentration, ethidium bromide influx [8]: 50 to 100 nM | influx of ethidium bromide ([8]; 100 μM BzATP): acute increase in the influx of ethidium bromide | TUNEL staining of papilloma tissues ([9]; biopsy at week 10, basal/parabasal regions): intense TUNEL staining | decrease of mean number of papillomas per animal ([9]; versus DMBA/TPA group): about 25% | decrease of mean papilloma size ([9]; versus DMBA/TPA group): about 45% | animals having at least one papilloma ([9]; week 6, DMBA/TPA+BzATP group): 53.8% | papillomas per animal (mean±SEM) ([9]; week 10, DMBA/TPA+BzATP group): 1.23±0.34 | animals with at least one skin papilloma ([9]; week 12, DMBA/TPA+BzATP group): 78% | mean papilloma size per animal (mean±SEM) ([9]; week 12, DMBA/TPA+BzATP group): 3.46 ±0.73 mm | EC50 [10]: 35 µM | potency at the P2X7 receptor relative to ATP ([10]; greater potency than ATP): 5-10 fold | increase of apoptosis by BzATP [11]: 2.5 fold

From patent US8314068B2, “P2X7 inhibition of epithelial cancers and papillomas” (University Hospitals of Cleveland, priority 2009, dated 2012)
